“Also recorded” adds a separate entry of the source.
What was measured:
[1] = test system: HtrA; assay: In vitro cleavage of recombinant E-Cadherin by HtrA (Western blot); format: biochemical, Helicobacter pylori; conditions: 100 ng recombinant E-Cadherin, 100 ng/µl HtrA, 16 h
Protocol: (§1) For in vitro cleavage studies, recombinant E-Cadherin, EGFR and JAM chimera, IgA or Casein, (R&D Systems, Wiesbaden, Germany) were incubated with HtrA^wt, HtrA^S205A or MMP7 in 50 mM HEPES (pH 7.4) at 37°C for 16 h. Where indicated, HHI or MMP inhibitor II were added. Reactions were stopped by boiling in Laemmli buffer, followed by 8% SDS-PAGE and Western blotting.

[2] = biological target: T1, MMP-7 (Homo sapiens, UniProt P09237); assay: In vitro cleavage of recombinant E-Cadherin by MMP-7 (Western blot); format: biochemical; conditions: 5 ng/µl MMP-7, 16 h, 100 µM HHI (Fig. 11E)
T1 sequence (P09237 95-267): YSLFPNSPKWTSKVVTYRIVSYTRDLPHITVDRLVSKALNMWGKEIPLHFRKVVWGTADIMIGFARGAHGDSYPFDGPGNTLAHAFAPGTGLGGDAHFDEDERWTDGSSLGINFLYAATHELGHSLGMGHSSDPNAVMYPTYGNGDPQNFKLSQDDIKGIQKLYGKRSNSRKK
Protocol: as §1

[3] = test system: MKN-28 cells; assay: Hp-induced ectopic E-Cadherin shedding in infected cells (Western blot of supernatants and lysates); format: cell-based, human; conditions: 100 µM HHI
Protocol: The human gastric adenocarcinoma cell line MKN-28 was grown in RPMI1640 medium (Biochrom, Berlin, Germany) and human breast cancer cells (MCF-7) in DMEM medium (Biochrom) containing 4 mM glutamine (Invitrogen, Karlsruhe, Germany]), and 10% FCS (Biowest, Nuaillé, France) in a humidified 5% CO2 (MKN-28) or 10% CO2 (MCF-7) atmosphere at 37°C. Cells were seeded in tissue culture plates 48 hours before infection and grown to confluence. 1-2 h hours prior to infection, medium was replaced by fresh serum-free media. Where indicated, cells were incubated with indicated concentrations of HHI or MMP inhibitor II (blocks MMP1, MMP3, MMP7 and MMP9) (Calbiochem, Merck , Darmstadt, Germany).
Hp strains Hp26695 and P12 were cultured on agar plates containing 10% horse serum under microaerophilic conditions at 37°C for 48 hours. For infection, bacteria were harvested in PBS Dulbecco's medium, pH 7.4, added to the host cells at a multiplicity of infection (MOI) of 50 or 100 for the indicated time periods and monitored using an inverse phase-contrast microscope (model TS 100, INTAS). To quantify bacteria translocating through cellular monolayers, MKN-28 cells were grown to confluence on filters prior to infection with Hp for 48 h. Translocating Hp were cultured and CFU were counted. All experiments were repeated 3-4 times. […]

[4] = test system: Hp; assay: Hp adherence and viability, colony forming units after infection of MKN-28 cells; format: cell-based, Helicobacter pylori
Protocol: For secretome analysis, Hp was grown in protein-free liquid brain heart infusion (BHI) medium (Merck) supplemented with β-cyclodextrin for 48 hours (Bumann et al., 2002). Supernatants of Hp BHI cultures were sterilized by filtration. Lysates of Hp were obtained by sonication in PBS containing 0.1% Triton X-100. To quantify colony forming units (CFU) of Hp, cells were infected with Hp in the presence or absence of HHI. After 16-24 h cells were washed twice with PBS, harvested in BHI supplemented with β-cyclodextrin and seeded on Hp plates. After 72 h, colonies were counted.

[5] = test system: MKN-28 cells; assay: Cell aggregation assay; format: cell-based, human; conditions: 50 ng/µl HtrAwt plus 100 µM HHI (Fig. 4E)
Protocol: For cell aggregation assays, 2 x 10^5 cells were trypsinized and seeded into BSA-coated 24-well plates, each well containing 500 µl of cell aggregation buffer (10 mM HEPES (pH 7.4), 150 mM NaCl, 0.7 mM CaCl2, 1% BSA, 0.01% trypsin). After stimulation at 37°C for 30 min on a rocking platform, cells were fixed in 500 µl of 4% paraformaldehyde for 20 min and observed using an inverse phase-contrast microscope.

[6] = test system: MCF-7; assay: In-situ immunofluorescence of E-Cadherin in Hp-infected cells; format: cell-based, human; conditions: MCF-7, Hp 16 h, 100 µM HHI (Fig. 5A)
Protocol: (§2) For immunofluorescence staining, cells were grown for 24 h on glass coverslips, then fixed (4% paraformaldehyde in PBS), and permeabilized (0.2% Triton X-100 in PBS). Immunostaining was performed using anti-E-Cadherin (cl. 36 detects the intracellular domain, BD Biosciences), anti-E-Cadherin (HecD-1 detects the extracellular domain), ZO-1 (Invitrogen), anti-CagA (Immunological and Biochemical Testsystems GmbH, Reutlingen, Germany), anti-β1-integrin and anti-Hp. Secondary antibodies were labeled with Alexa-488 or Alexa-546 (Invitrogen). Filamentous actin was detected with Alexa Fluor 546-conjugated phalloidin (Invitrogen). For nuclei staining, 4',6-diamin-2-phenylin-dol-dihydrochloride (DAPI, Roche) was used as recommended by the manufacturer's instructions. Samples were analyzed by confocal laser scanning microscopy using a Zeiss LSM 510 Meta confocal microscope. Images were further processed using Corel Photopaint.

[7] = test system: MKN-28 cells; assay: Co-immunoprecipitation of β-Catenin and p120ctn in Hp-infected cells; format: cell-based, human; conditions: Hp 6 h, 100 µM HHI (Fig. 5B)
Protocol: Interaction between β-Catenin and p120^ctn was analyzed by co-immunoprecipitation studies. Cells were lysed and β-Catenin and p120^ctn were immunoprecipitated from cell lysates. Immobilized protein complexes were washed three times with lysis buffer, boiled in Laemmli buffer, separated by SDS-PAGE, and blotted on membranes.

[8] = test system: TCF/LEF1; assay: TOPflash/FOPflash luciferase reporter gene experiment; format: cell-based, human; conditions: MKN-28, Hp 24 h, 50 µM HHI (Fig. 5C)
Protocol: MKN-28 cells were cultured in 24-well plates and grown to 60% confluence. Cells were transfected with 100 ng TOPflash or 100 ng FOPflash (Upstate, Millipore, Bad Schwalbach/Taunus, Germany) and 4 ng phRL Null. As a positive control, cells were co-transfected with 100 ng β-Catenin (β-Cat^S33A) or empty vector for 12 h using Gene Juice transfection reagent (Novagen, Merck, Darmstadt, Germany) as recommended by the manufacturer's instructions. Eighteen hours after transfection, cells were infected with Hp at an MOI of 50, or left untreated. In further approaches, cells were incubated with 50 ng/µl HtrA^wt or HtrA^S205A mutant. After 24 h, cells were harvested in 100 µl reporter lysis buffer (Promega) and luciferase activity was determined in a dual channel luminometer. Results were normalized for transfection efficiency of cotransfected renilla luciferase plasmid.

[9] = test system: Hp; assay: Hp translocation through the intercellular space of confluent monolayers (confocal microscopy, filter CFU); format: cell-based, Helicobacter pylori
Protocol: Hp strains Hp26695 and P12 were cultured on agar plates containing 10% horse serum under microaerophilic conditions at 37°C for 48 hours. For infection, bacteria were harvested in PBS Dulbecco's medium, pH 7.4, added to the host cells at a multiplicity of infection (MOI) of 50 or 100 for the indicated time periods and monitored using an inverse phase-contrast microscope (model TS 100, INTAS). To quantify bacteria translocating through cellular monolayers, MKN-28 cells were grown to confluence on filters prior to infection with Hp for 48 h. Translocating Hp were cultured and CFU were counted. All experiments were repeated 3-4 times.
as §2, with “For nuclei staining, 4',6-diamin-2-phenylin-dol-dihydrochloride (DAPI, Roche) was used as recommended by the manufacturer's instructions.” left out, “Images were further processed using Corel Photopaint.” left out

[10] = test system: CagA; assay: CagA injection and phosphorylation in infected monolayers (Western blot); format: cell-based, Helicobacter pylori; conditions: MKN-28 monolayers
Protocol: Cells were harvested in lysis buffer (20 mM Tris-HCl, pH 7.5, 1 mM ETDA, 100 mM NaCl, 1% Triton X-100, 0.5 % sodium deoxycholate, 0.1% SDS, 1 x complete protease inhibitors (Roche, Basel, Switzerland), 1 mM Na3VO4, 1 mM sodium molybdate, 20 mM NaF, 10 mM sodium pyrophosphate, 20 mM β-glycerophosphate) and separated by SDS-PAGE. Proteins were transferred onto PVDF membranes, blocked with RotiBlock (Roth, Karlsruhe, Germany), and probed with anti-E-Cadherin cl. 36 (detects intracellular E-Cadherin domain). To detect CTF1 and CTF2 by Western blots an anti-E-Cadherin polyclonal antibody from Cell Signaling Technologies , Danvers, MA, USA] was used. Quantification of CTF and NTF fragments was performed using the Fusion FX-7 image analyzer and Bio-1D analysis software (Vilber Lourmat Deutschland GmbH, Eberhardzell, Germany). Monoclonal antibodies HecD1 and H-108 against the extracellular domain of E-Cadherin (NTF) were obtained from Calbiochem, Merck, Darmstadt, Germany and Santa Cruz, Santa Cruz, CA, USA, respectively. Expression of Occludin, ZO-1 (Invitrogen), JAM1, β-Catenin, p120^ctn (BD Biosciences, New Jersey, USA), ADAM10, EGFR (Santa Cruz), GAPDH (Abcam, Cambridge, UK), β-Actin (Sigma), CagA (Aalto Bio Reagents Ltd., Dublin, Ireland) was analyzed using specific antibodies. […]

[11] = test system: interleukin-8 (IL-8); assay: Interleukin-8 (IL-8) ELISA; format: cell-based, human; conditions: MKN-28, Hp 8 h, 16 h and 36 h, 100 µM HHI (Fig. 12B)
Protocol: Determination of IL-8 release was performed by applying a commercially available IL-8 specific ELISA assay system (Bender Medsystems, eBioscience Inc., San Diegeo, CA, USA). In brief, MKN-28 cells were incubated with Hp 8-36 h. Cell culture supernatants were collected, centrifuged, and stored at -80°C for subsequent IL-8 quantification. The IL-8 release was determined as recommend by the manufacturer's instructions.

[12] = test system: β1-integrin; assay: Confocal microscopy of phospho-CagA and β1-integrin co-localization; format: cell-based; conditions: Hp-infected cells, preincubation with 100 µM HHI (Fig. 7C)
Protocol: as §2

With `CCOc1ccc2nc(NC(=O)CSc3nnc(-c4ccc(S(=O)(=O)N5CCCC5)cc4)o3)sc2c1` [HHI] the “HHI concentration sufficient to partly block HtrA-mediated E-Cadherin cleavage” value [1] was 10 µM, the “HHI concentration that blocked cleavage completely” value [1] was 30 µM and the “MMP7-mediated E-Cadherin cleavage activity” value [2] was “did not affect”. For the same compound, the “secretion of HtrA into the infected cell supernatant” value ([3]; 16 and 24 h (Fig. 4D)) was “could be excluded”, the “Hp-induced ectopic E-Cadherin cleavage in infected MKN-28 cells” value ([3]; Hp infection 16 and 24 h (Fig. 4D)) was “clearly inhibited” and the “Hp adherence and Hp viability” value ([4]; 100 µM HHI (Fig. 11C)) was “could be excluded; also recorded: not affecting”. The “relative CFU colony forming units (CFU)” value ([4]; 100 µM HHI, 16 h and 24 h infection, colonies counted after 72 h (Fig. 11C)) was “no significant difference”, the “E-Cadherin-mediated cell aggregation of HtrAwt-treated cells” value [5] was “did not form aggregates, unless HHI was also added” and the “Hp-induced loss of E-Cadherin-dependent intercellular adhesion” value [6] was “blocks; also recorded: efficiently blocked”. The “loss of β-Catenin in the precipitated p120ctn immunocomplex upon Hp infection” value [7] was “not reverted”, the “Hp-induced luciferase activity (TOP/FOP)” value [8] was “unaffected” and the “Hp invasion through the intercellular space of confluent MKN-28 cells growing on filters” value ([9]; 100 µM HHI, Hp 48 h, CFU counted, p = 0.01 (Fig. 6B)) was “significantly inhibited”. The “number of translocating bacteria in intercellular spaces” value ([9]; MKN-28 monolayers, confocal microscopy, 48 h, 100 µM HHI (Fig. 6A)) was “greatly reduced”, the “amount of total CagA” value ([10]; 100 µM HHI preincubation (Fig. 7A)) was “not altered” and the “injected phospho-CagA in Hp-infected cells” value ([10]; 100 µM HHI preincubation, 16 h and 24 h (Fig. 7A)) was “decreased”. The “T4SS-dependent secretion of interleukin-8 (IL-8) of Hp-infected cells” value [11] was “unaffected” and the “co-localization of phospho-CagA with β1-integrin at the basolateral membrane” value [12] was “efficiently prevented”.
